Reference: patent US5831026A, “Process for purifying factor VIII” (Pharmacia & Upjohn AB, priority 1994, dated 1998)

System: metal-dependent proteases
Conditions: 3 mM EDTA in washing and elution liquid, harvest solution no. 2
Protocol: The method chosen was a protease assay with casein which was resorufin-labeled. By treatment with proteases, resorufin-labeled peptides are released from the casein. The concentration of these resorufin-labeled peptides in the supernatant is a measure of the proteolytic activity present. The test sample was incubated at 37° C. for a period of time which was dependent upon the sample at issue. The absorption wave-length chosen was 574 run throughout the tests.
Conditioned mediums (containing human serum albumin) from two consecutive harvests, were clarified and buffered with NH4 Ac. Each resulting solution, with a pH of 6.8, was loaded onto a column containing SP SEPHAROSE® FF sold by Pharmacia AB of Uppsala, Sweden. This cation-exchange chromatography step was performed at about 8° C. After washing, factor VIII was eluted with a salt buffer containing 0.8M NaCl and 0.1M NH4 Ac. The washing liquid as well as the elution liquid contained 3 mM EDTA in the tests with harvest solution no. 2. Tests without EDTA present was carried out for comparison (harvest solution no. 1). […] The concentration of unbound Ca^2+ -ions was determined by an ion-selective electrode.

O=C(O)CN(CCN(CC(=O)O)CC(=O)O)CC(=O)O [EDTA, ethylenediamine tetraacetic acid]
Mean absorbance corrected (blank subtracted): 0.023
Protease activity (%) (harvest no. 1 without EDTA = 100): 8%
Mean absorbance (incubation 2 h): 0.064
